Laboratory results as given in patent US20140228423A1, “BIOMARKERS AND THERAPY FOR CANCER” (BAYLOR COLLEGE OF MEDICINE, priority 2011, published 2014).

Assays:
OVCAR8 cells [1] = assay: Cell viability of OVCAR8 cells after 48 hours with drug (dose response); type: cell-based; conditions: Homo sapiens, OVCAR-8; 48-hr treatment of OVCAR8 cells
Experimental: (§1) FIG. 10. Drug and miRNA mimic effects on ovarian cancer cell viability (A-C) and proliferation (D). OVCAR8 cancer cells were incubated for 48 hours in the presence of YM155 (A) or everolimus (B) and assayed for cell viability. C. Three independent PTEN/DICER DKO mouse serous carcinoma cell lines were transfected with miRNA control (miR-Ctrl) or miR-34c mimics and assayed for cell viability 48 hours later. D. OVCAR8 cells were infected with lentivirus expressing miR-Ctrl or miR-34c and assayed for cell number. *, P<0.05; **, P<0.005; ***, P<0.0005
FIG. 17. Dose response curve of YM155 after 48-hr treatment of OVCAR8 cells.
Well-known as an apoptosis inhibitor, survivin has been identified to contribute to nearly every aspect of cancer from onset to outcome (Altieri, 2008; Martinelli et al., 2006). Nearly all serous, endometrioid, and poorly-differentiated ovarian cancers express surviving (Cohen et al., 2003), the levels of survivin correlate with poor prognostic parameters (Cohen et al., 2003), high levels of survivin are associated with taxol/platinum resistance (Zaffaroni et al., 2002), and women with PTEN-negative/survivin-positive ovarian cancers have the worst prognosis (Sui et al., 2006). […] Based on these findings, the inventors treated mouse serous cancer cell lines and the human serous cancer line OVCAR8 with YM155 or everolimus, an inhibitor of mTOR (FIG. 5A, B). […]

OVCAR8 cells [2] = assay: Illumina gene expression analysis of YM155-treated versus DMSO-treated OVCAR8 cells; type: cell-based, human; conditions: OVCAR8, 6 hours
Experimental: (§2) To characterize the early targets of YM155 in cancer cells, the ovarian cancer cell line OVCAR8 was treated acutely for 6 hours with YM155 (10 nM). Using Illumina gene expression analysis and QPCR followup, YM155-treated cells were compared with DMSO vehicle treated cells. […] DDIT3 (a.k.a., CHOP) is a proapoptotic protein whose induction is a hallmark of ER stress induced apoptosis (Wang et al., 2010). […] HSP72 has strong cytoprotective effect by functioning as a molecular chaperone in cytosolic protein folding, transport, and degradation (Morimoto et al., 1997; Tavaria et al., 1996), and as an inhibitor of cellular apoptosis (Gamido et al., 2003; Samali and Orrenius, 1998). In addition, HSP72 interacts with ER stress sensor protein IRE1a thereby enhancing IREla-XBP1 signaling at the ER and promoting adaptation to ER stress and cell survival (Gupta et al., 2010). HSP72 is normally expressed at low levels, and is induced upon exposure to environmental stress to exert its cytoprotective effect. However, in cancer, HSP72 is constitutively expressed in many cancer cell lines and biopsies, and its expression correlates with poor prognosis (Gabai et al., 2009). HSP72 provides a selective advantage to cancer cells by suppressing default senescence via p53-dependent and p53-independent pathways (Yaglom et al., 2007). Thus, YM155 acutely suppresses HSPA1A and HSPA1B, indicating a novel mechanism which may contribute directly to the anti-cancer effect of YM155.

OVCAR8 cells [3] = assay: QPCR follow-up of YM155-treated versus DMSO-treated OVCAR8 cells; type: cell-based, human; conditions: OVCAR8, 6 hours
Text: as §2, with “Using” for “To characterize the early targets of YM155 in cancer cells, the ovarian cancer cell line OVCAR8 was treated acutely for 6 hours with YM155 (10 nM). Using”

[4] = tested on: ovarian cancer cell lines and a pancreatic cancer cell line; assay: Cell Titer Glo viability with YM155, parthenolide or both for 48 hours; conditions: single agents at levels giving about half inhibition, and their combination
OVCAR8 cells [5] = assay: High-throughput screen of Prestwick Chemical Library with or without YM155; conditions: Homo sapiens, OVCAR-8, read-out: Cell viability
Experimental: High-throughput screen for drugs that synergize with YM155. […] Digitonin (0.8 mg/ml) was used as a positive control for ˜100% cell death. […] The relative synergy for each drug was then calculated by subtracting measured cell survival of combinatorial treatment from the calculated c value.
To identify additional small molecules that synergize with YM155, a small library screen was performed.

[6] = tested on: Dicer-Pten DKO mouse cancer cell lines; assay: Cell viability (CellTiter-Glo) of Dicer-Pten DKO mouse cancer cell lines after miRNA mimic transfection or everolimus; type: cell-based; conditions: for sensitivity of cells (anti-proliferative, secondary to G1 arrest, and pro-apoptotic effects): Dicer/Pten double null line from primary mouse serous cancer, everolimus 0.8 uM, 48 h, alone and in combination; for cell viability and proliferation after miR-34c mimic delivery: mouse and human serous cancer cell lines (three PTEN/DICER DKO lines, OVCAR8)
Experimental: FIG. 4. Activation of the PI3K pathway in Dicer/Pten DKO mice and effects of mir34c and everolimus on a Dicer/Pten DKO cell line. A, Western blot analysis of DKO fallopian tube tumors showing activation of AKT signaling compared with control fallopian tubes. B, A Dicer/Pten DKO cell line was transfected with miR-34c mimic or a control (miR-Ctrl), treated with everolimus (0.8 uM) or without (DMSO), and examined 48 h later for the effects on cell viability.
To functionally evaluate the roles of miR34c and the mTOR inhibitor everolimus in serous cancers, the inventors first generated 32 cell lines from primary cancers (5 lines), metastatic lesions (11 lines), and ascites fluid (16 lines) of independent Dicer/Pten DKO mice. The effects were analyzed of everolimus and miR-34c mimic alone and in combination on a confirmed Dicer/Pten double null cell line derived from a primary mouse serous cancer. […] Based on the studies, there are the following considerations: 1) MiR-34c and additional miRNAs function to suppress the development of high grade serous carcinomas and the […], and/or 2) Simultaneous pharmacological targeting of mTOR and pathways downstream of miR-34c and other miRNAs leads to therapies to eradicate high-grade serous carcinomas.
Dicer-Pten DKO mouse cancer cell line DKO-1 were transfected with various miRNA mimics including miR-31, miR-100, let-7b, miR-34c or a miRNA control (miR-Ctrl). Cell viability was measured by ATP quantitation-based CellTiter-Glo assay 48 hours after transfection.
(§3) FIG. 13A is a cell viability assay. Dicer-Pten DKO mouse cancer cell lines were transfected with miR-34c followed by cell viability assay in 48 hours using CellTiter-Glo assay. FIG. 13B is cell cycle analysis. Forty-eight hours after miR-34c transfection, Dicer-Pten DKO mouse cancer cell lines were fixed in cold 70% ethanol and stained with PI. Cell cycle profiles were determined by flow cytometry and analyzed by flowjo.

[7] = tested on: mouse serous cancer cell lines and the human serous cancer line OVCAR8; assay: Treatment of serous cancer cell lines with YM155 or everolimus; type: cell-based
Text: Well-known as an apoptosis inhibitor, survivin has been identified to contribute to nearly every aspect of cancer from onset to outcome (Altieri, 2008; Martinelli et al., 2006). Nearly all serous, endometrioid, and poorly-differentiated ovarian cancers express surviving (Cohen et al., 2003), the levels of survivin correlate with poor prognostic parameters (Cohen et al., 2003), high levels of survivin are associated with taxol/platinum resistance (Zaffaroni et al., 2002), and women with PTEN-negative/survivin-positive ovarian cancers have the worst prognosis (Sui et al., 2006). […] Based on these findings, the inventors treated mouse serous cancer cell lines and the human serous cancer line OVCAR8 with YM155 or everolimus, an inhibitor of mTOR (FIG. 5A, B). […] These findings indicate that YM155 and everolimus can be used to identify small molecules that synergize with the compounds to eradicate high-grade serous carcinomas in women.

[8] = tested on: PTEN/DICER DKO primary serous cancer cell lines; assay: Microarray analysis (QPCR follow-up) of gene expression after miR-34c mimic transfection; type: cell-based, mouse
Experimental: To characterize the roles of miR-34c in regulating major cancer and cell cycle pathways, mimics were transfected into three independent PTEN/DICER DKO primary serous cancer cell lines and the human OVCAR8 serous cancer cell line and assayed for cell viability and cell proliferation (FIG. 5C, D) and microarray analysis was performed, with followup QPCR confirmation. […] The effects were examined of miR-34c on major pathway genes that contain miR-34c binding sites in their 3′UTR sequences as well as pathways in which these proteins lie. […] These findings are especially relevant to cancer treatment since mutations in TOP2A are associated with drug resistance, and TOP2A is the target for several chemotherapeutic agents.

OVCAR8 = assay: Lentiviral expression of miR-34c in OVCAR8: proliferation (CellTiter-Glo) and cell cycle (PI flow cytometry); type: cell-based, human
Experimental: as §1
In FIG. 16A, OVCAR8 infected with miR-34c or control lentivirus were seeded onto 96-well plates for proliferation assay measured by CellTiter-Glo assay. In FIG. 16B, five days after miR-34c or control lentivirus infection, cells were fixed in cold 70% ethanol and stained with PI. Cell cycle profiles were determined by flow cytometry and analyzed by flowjo.

[9] = tested on: Dicer-Pten DKO mouse cancer cell lines; assay: Cell cycle analysis (PI, flow cytometry) after miR-34c transfection; type: cell-based; conditions: 48 hours after miR-34c transfection
Experimental: as §3

[10] = tested on: Dicer-Pten DKO mouse cancer cell line; assay: QPCR analysis of miR-34c downstream genes after miR-34c mimic transfection; type: cell-based
Text: In FIG. 14, miR-34c inhibits cyclinE-CDK2 complex. Analysis of some of miR-34c downstream genes is shown. QPCR analysis showing relative quantity of CDK2 (A), CCNE2 (B) and CDKN1C(C) after miR-34c mimic transfection in Dicer-Pten DKO mouse cancer cell line.

[11] = transient transfection, Dicer-Pten DKO cell lines

Molecule: COCCn1c2c([n+](Cc3cnccn3)c1C)C(=O)c1ccccc1C2=O [YM155, sepantronium bromide]
- GI50 (OVCAR8 cells [1]): 4.6 nM
- Fold Change YM155 (10 nM)/DMSO (Array): ATF3 (OVCAR8 cells [2]): 2.2
- Fold Change YM155 (10 nM)/DMSO (Array): BIRC5 (Survivin) (OVCAR8 cells [2]): −1.3
- Fold Change YM155 (10 nM)/DMSO (Array): DDIT3 (OVCAR8 cells [2]): 3.8
- Fold Change YM155 (10 nM)/DMSO (Array): DDIT4 (OVCAR8 cells [2]): 5.6
- Fold Change YM155 (10 nM)/DMSO (Array): HERPUD1 (OVCAR8 cells [2]): 2.2
- Fold Change YM155 (10 nM)/DMSO (Array): HSPA1A (OVCAR8 cells [2]): −2.6
- Fold Change YM155 (10 nM)/DMSO (Array): HSPA1B (OVCAR8 cells [2]): −2.6
- Fold Change YM155 (10 nM)/DMSO (Array): TRIB3 (OVCAR8 cells [2]): 2.6
- Fold Change YM155 (30 nM)/DMSO (QPCR): ATF3 (OVCAR8 cells [3]): 11.1
- Fold Change YM155 (30 nM)/DMSO (QPCR): BIRC5 (Survivin) (OVCAR8 cells [3]): −1.1
- Fold Change YM155 (30 nM)/DMSO (QPCR): DDIT3 (OVCAR8 cells [3]): 3.6
- Fold Change YM155 (30 nM)/DMSO (QPCR): DDIT4 (OVCAR8 cells [3]): 10.6
- Fold Change YM155 (30 nM)/DMSO (QPCR): HERPUD1 (OVCAR8 cells [3]): 3.1
- Fold Change YM155 (30 nM)/DMSO (QPCR): HSPA1A (OVCAR8 cells [3]): −7.5
- Fold Change YM155 (30 nM)/DMSO (QPCR): HSPA1B (OVCAR8 cells [3]): −4.4
- Fold Change YM155 (30 nM)/DMSO (QPCR): TRIB3 (OVCAR8 cells [3]): 2.0
- inhibition of cancer cell viability [4]: ~50%
- viability at 0.003 µM (OVCAR8 cells [5]): 64.3%

Molecule: CO[C@H]1C[C@@H]2CC[C@@H](C)[C@@](O)(O2)C(=O)C(=O)N2CCCC[C@H]2C(=O)O[C@H]([C@H](C)C[C@@H]2CC[C@@H](OCCO)[C@H](OC)C2)CC(=O)[C@H](C)/C=C(\C)[C@@H](O)[C@@H](OC)C(=O)[C@H](C)C[C@H](C)/C=C/C=C/C=C/1C [everolimus, reference compound]
- sensitivity of cells (anti-proliferative, secondary to G1 arrest, and pro-apoptotic effects) [6]: exquisitely sensitive
- sensitivity of the tumors (cell viability) [7]: micromolar levels

Molecule: miR-34c mimic: mimic of miR-34c, mature sequence AGGCAGUGUAGUUAGCUGAUUGC (SEQ ID NO:2); also delivered by lentivirus (listed as RNA, chemistry not given here)
- sensitivity of cells (anti-proliferative, secondary to G1 arrest, and pro-apoptotic effects) [6]: exquisitely sensitive
- suppression of mouse and human ovarian cancer cell viability among miRNAs tested ([6]; Dicer/Pten serous ovarian cancer model): the only miRNA to suppress
- cell viability and proliferation after miR-34c mimic delivery [6]: dramatic effect
- cell viability and proliferation after miR-34c mimic delivery ([6]; listed as miR-34c): reduced cell viability
- apoptosis [6, 11]: induction of apoptosis
- cell growth [6, 11]: growth inhibitory effect
- suppression of TOP2A ([8]; by the miR-34c mimic): 11.7 fold
- Fold Change miR-34c mimic: CCNE2 ([8]; gene CCNE2, predicted miR-34c binding site): −4.6
- Fold Change miR-34c mimic: CDC6 ([8]; gene CDC6, predicted miR-34c binding site): −5.5
- Fold Change miR-34c mimic: CDCA8 ([8]; gene CDCA8, predicted miR-34c binding site): −9.6
- Fold Change miR-34c mimic: CDK2 ([8]; gene CDK2): −3.4
- Fold Change miR-34c mimic: CDT1 ([8]; gene CDT1): −6.3
- Fold Change miR-34c mimic: INCENP ([8]; gene INCENP): −4.5
- Fold Change miR-34c mimic: MCM5 ([8]; gene MCM5, predicted miR-34c binding site): −18.7
- Fold Change miR-34c mimic: MDM2 ([8]; gene MDM2): 1.0
- Fold Change miR-34c mimic: MRVI1 ([8]; gene MRVI1): 10.2
- Fold Change miR-34c mimic: PBK ([8]; gene PBK): −5.7
- Fold Change miR-34c mimic: Survivin ([8]; gene Survivin): −4.8
- Fold Change miR-34c mimic: TOP2A ([8]; gene TOP2A): −11.7
- upregulation of MRVI1 ([8]; miR-34c mimic): 10.2 fold
- downregulation of direct targets MCM5, CDC6, CCNE2 and CDCA8 ([8]; upon delivery of miR-34c): 4.6-18.7 fold
- cell cycle profile (OVCAR8; five days after lentivirus infection, OVCAR8): arresting cancer cells in G1 phase
- cell proliferation (OVCAR8; lentiviral expression of miR-34c in OVCAR8): inhibits cell proliferation
- cell cycle profile [9]: cell cycle arrest in G1 phase
- CDK2 relative quantity [10]: down regulating
- CDKN1C relative quantity [10]: up regulating
- cyclinE (CCNE2) relative quantity [10]: down regulating
